Laboratory results: patent publication US20190031717A1, “MULTI-FUNCTIONAL FUSION POLYPEPTIDE, PREPARATION METHOD THEREOF, AND APPLICATION OF SAME” (NANJING ANJI BIOLOGICAL TECHNOLOGY CO., LTD, priority 2016, published 2019)

Tests used:
[1] = test system: Pneumonia caused by lung infection; assay: Mouse pneumonia model, pneumonia caused by lung infection; type: in vivo, BALB/C mice; set-up: concentration or dose not given beside the values; conditions: mean ± SD
Description: (§1) The mouse pneumonia model was successfully established by the nose-drop method. To build the mouse pneumonia model, BALB/C mice with a body mass of 16-22 g were selected and anesthetized pneumonia chain was prepared after anesthesia with ether on day 0, day 1, and day 2. Staphylococcal fluid, adenovirus concentrate, Mycoplasma pneumoniae, Chlamydia pneumoniae, protozoa, and pneumonia fungi were slowly dripped into the nasal cavity of the mice, so that they enter the tracheobronchial. During the operation process, care was exercised to prevent bacterial fluid from flowing into the esophagus, which leads to inactivation the bacterial fluid. After successful model establishment, the polypeptides of the present invention were administered, and the results were shown in Table 5. […] The results were expressed in average value±standard deviation.

[2] = test system: Large cell lung cancer; assay: MTT assay, lung cancer tumor cells; type: cell-based, human; set-up: concentration or dose not given beside the values; conditions: 48 h, mean ± SD
Description: (§2) The inhibition of the growth of human lung cancer tumor cells by the polypeptide of the present invention was examined by MTT assay. The lung cancer tumor cells were cultured in a 37° C., 5% (volume fraction) CO2 incubator to a density of 90% or more, and collected by trypsinization. The cells were resuspended in the culture medium and counted under a microscope to adjust the cell concentration to 2.0×10^4 cells/mL, the cell suspension was inoculated into a 96-well plate at 100 μL per well, and cultured overnight at 37° C. in a 5% (volume fraction) CO2 incubator. After the cells were completely adhered, the polypeptide of the present invention was added as a drug-administered group, and a culture solution containing no drug was used as a blank control group, and the culture solution was diluted to each predetermined concentration. Each dilution was separately added to a 96-well plate at 100 μL per well and incubated for 48 h at 37° C. in a 5% (volume fraction) CO2 incubator. 20 μL of 5 mg/mL MTT was added to each well of a 96-well plate, and incubation was continued for 4 hours. The medium was aspirated, and the cells were dissolved in 100 μL of DMSO per well. The absorbance was measured by a microplate reader at a detection wavelength of 570 nm and a reference wavelength of 630 nm, and the growth inhibition rate was calculated as follows: tumor growth inhibition rate (%)=(1−administered group absorbance value/unadministered group absorbance value)×100%, and the experiment was repeated 3 times independently. The results obtained by the test were expressed as mean±standard deviation. The results in Table 6 indicate that the polypeptides of the present invention have a good inhibitory effect on proliferation of a variety of human lung cancer tumors (FIG. 5).

[3] = test system: Adenosquamous carcinoma; assay: MTT assay, lung cancer tumor cells; type: cell-based, human; set-up: concentration or dose not given beside the values; conditions: 48 h, mean ± SD
Description: as §2

[4] = test system: Squamous cell carcinoma; assay: MTT assay, lung cancer tumor cells; type: cell-based, human; set-up: concentration or dose not given beside the values; conditions: 48 h, mean ± SD
Description: as §2

[5] = test system: Small Cell Lung Cancer; assay: MTT assay, lung cancer tumor cells; type: cell-based, human; set-up: concentration or dose not given beside the values; conditions: 48 h, mean ± SD
Description: as §2

[6] = test system: Non-small cell lung cancer; assay: MTT assay, lung cancer tumor cells; type: cell-based, human; set-up: concentration or dose not given beside the values; conditions: 48 h, mean ± SD
Description: as §2

[7] = test system: Adenocarcinoma; assay: MTT assay, lung cancer tumor cells; type: cell-based, human; set-up: concentration or dose not given beside the values; conditions: 48 h, mean ± SD
Description: as §2

[8] = test system: Chlamydia pneumoniae; assay: Mouse pneumonia model, chlamydia; type: in vivo, BALB/C mice; set-up: concentration or dose not given beside the values; conditions: mean ± SD
Description: as §1

[9] = test system: protozoa; assay: Mouse pneumonia model, protozoal; type: in vivo, BALB/C mice; set-up: concentration or dose not given beside the values; conditions: mean ± SD
Description: as §1

[10] = test system: adenovirus concentrate; assay: Mouse pneumonia model, viral; type: in vivo, BALB/C mice; conditions: mean ± SD
Description: as §1

[11] = test system: A549 cells induced by TGF-β1 (lung fibrosis model); assay: Hydroxyproline content in TGF-β1-induced A549 pulmonary fibrosis cell model; type: cell-based, human; conditions: for Hydroxyproline Content Inhibition Rate in the Pulmonary Fibrosis Model: 48 hours
Description: Human non-small cell lung cancer cells A549 were cultured in DMEM medium containing 10% (volume fraction) fetal bovine serum, cultured in a carbon dioxide incubator with a volume fraction of 5% at 37° C., and changed once every other day, depending on cell density. A549 cells in logarithmic growth phase were digested with 0.25% trypsin to prepare a cell suspension, adjusted to a cell concentration of 1×10^9 cells/L, and seeded at a density of 4×10^5 cells/cm2 in a cell culture dish of 90 cm^2. The cells were randomly divided into two groups: (1) control group: cultured in DMEM containing 10% (volume fraction) fetal bovine serum; (2) model group: containing 10% (volume fraction) fetal bovine serum, transforming growth factor (TGF-β1, final concentration 5 μg/L) was cultured in DMEM. The cells were cultured at 37° C. in a volumetric 5% carbon dioxide incubator, and changed every other day, depending on the cell density. Cell morphology was observed daily using an inverted microscope to determine when the model was established. When A549 cells are changed from the cobblestone shape of the original epithelial cells to the long spindle shape of the interstitial cells, the modeling is successfully established.
After 48 hours of addition of the polypeptides, the cells of the control group, the model group, and the administration group were collected for subsequent measurement of molecular markers related to pulmonary fibrosis.
Hydroxyproline accounts for 13.4% of collagen, so the content of hydroxyproline can reflect the accumulation of collagen during pulmonary fibrosis, which in turn reflects the degree of pulmonary fibrosis.
Prepare citric acid buffer: 120 g of sodium citrate, 12 mL of glacial acetic acid, 46 g of citric acid, 34 g of sodium hydroxide, dissolved in distilled water, adjust the pH to 6.0, and then dilute to 1000 mL.
Prepare 0.05 mol/L chloramine T solution: weigh 7.05 g of chloramine T, dissolve in 100 mL of distilled water, then add 150 mL of ethylene glycol, and add 250 mL of citric acid buffer to mix well.
Prepare p-dimethylaminobenzaldehyde: Reagent A: Take 20 mL of absolute ethanol, slowly add 2.74 mL of concentrated sulfuric acid; Reagent B: Take 12.0 g of p-dimethylaminobenzaldehyde, slowly add 40 mL of absolute ethanol. Heat in a water bath to completely dissolve and cool to room temperature, then slowly add the A solution to B and mix well.
Prepare a […] perchloric acid solution: take 27 mL of perchloric acid and dilute to 100 mL with distilled water.
The specific steps are as follows: collect the cells in a 1 mL water solution and lyse the cells using a homogenizer; adjust the pH to neutral, dilute to 3 mL, add activated carbon to centrifuge; take 1 mL supernatant, add 1 mL solution 1 (1 mL citrate buffer and 1 mL 0.05 mol/L chloramine T solution), stand for 10 minutes, add 1 mL of perchloric acid, stand for 5 minutes, add 1 mL of p-dimethylaminobenzaldehyde reagent, keep in 60° C. water bath for 15 minutes; centrifuge at 3500 rpm/min for 10 minutes, take the supernatant to measure the absorbance value at a wavelength of 550 nm.
The test was repeated 3 times independently, and the inhibition rate was calculated as follows: inhibition rate (%)=(1−experimental group absorbance/model group absorbance)×100%.

| Substance | Inhibitory Effects on Various Pulmonary Infections [1] [%] | tumor growth inhibition rate, MTT Assay [2] [%] | tumor growth inhibition rate, MTT Assay [3] [%] | tumor growth inhibition rate, MTT Assay [4] [%] | tumor growth inhibition rate, MTT Assay [5] [%] | tumor growth inhibition rate, MTT Assay [6] [%] | tumor growth inhibition rate, MTT Assay [7] [%] | Inhibitory Effects on Various Pulmonary Infections [8] [%] | Inhibitory Effects on Various Pulmonary Infections [9] [%] | Inhibitory Effects on Various Pulmonary Infections [10] [%] | effect on content of hydroxyproline in lung fibrosis model cells (FIG. 1-3), in words [11] | Hydroxyproline Content Inhibition Rate in the Pulmonary Fibrosis Model ([11]; 4 uM) [%] | Hydroxyproline Content Inhibition Rate in the Pulmonary Fibrosis Model ([11]; 8 uM) [%] |
| --- | --- | --- | --- | --- | --- | --- | --- | --- | --- | --- | --- | --- | --- |
| Arg-Gly-Asp-Gly-Gly-Gly-Gly-Ile-Val-Arg-Arg-Ala-Asp-Arg-Ala-Ala-Val-Pro-Gly-Gly-Gly-Gly-Pro-(D-Pyr)-(D-Cys)-Bip-Arg-Gly-Glu [Polypeptide IV] | 52.37 ± 21.81 | 88.92 ± 19.05 | 60.53 ± 16.36 | 67.13 ± 12.69 | 71.14 ± 17.19 | 93.66 ± 23.44 | 88.65 ± 17.86 | 47.43 ± 17.72 | 62.44 ± 24.16 | 59.10 ± 18.42 | can inhibit the content of hydroxyproline in lung fibrosis model cells | 33.09 | 47.28 |
| Arg-Gly-Asp-Gly-Gly-Gly-Gly-Pro-(D-Pyr)-(D-Cys)-Bip-Arg-Gly-Glu-Gly-Gly-Gly-Gly-Ile-Val-Arg-Arg-Ala-Asp-Arg-Ala-Ala-Val-Pro [Polypeptide III] | 55.08 ± 15.52 | 93.53 ± 17.04 | 63.67 ± 11.60 | 70.61 ± 12.86 | 74.83 ± 13.63 | 91.58 ± 17.95 | 93.25 ± 16.99 | 49.88 ± 14.05 | 65.68 ± 18.50 | 62.17 ± 17.51 | can inhibit the content of hydroxyproline in lung fibrosis model cells | 30.66 | 56.21 |
| Ile-Val-Arg-Arg-Ala-Asp-Arg-Ala-Ala-Val-Pro-Gly-Gly-Gly-Gly-Arg-Gly-Asp-Gly-Gly-Gly-Gly-Pro-(D-Pyr)-(D-Cys)-Bip-Arg-Gly-Glu [Polypeptide V] | 44.61 ± 18.63 | 75.74 ± 16.27 | 51.56 ± 13.97 | 57.18 ± 10.83 | 60.60 ± 14.68 | 79.78 ± 20.01 | 75.52 ± 15.25 | 40.40 ± 15.13 | 53.19 ± 20.63 | 50.35 ± 15.73 | can inhibit the content of hydroxyproline in lung fibrosis model cells | 34.47 | 49.25 |
| Ile-Val-Arg-Arg-Ala-Asp-Arg-Ala-Ala-Val-Pro-Gly-Gly-Gly-Gly-Pro-(D-Pyr)-(D-Cys)-Bip-Arg-Gly-Glu-Gly-Gly-Gly-Gly-Arg-Gly-Asp [Polypeptide II] | 50.81 ± 14.48 | 86.28 ± 15.90 | 58.73 ± 10.82 | 65.14 ± 12.00 | 69.03 ± 12.72 | 90.88 ± 16.75 | 86.03 ± 15.85 | 46.02 ± 13.12 | 60.59 ± 17.27 | 57.35 ± 16.34 | can inhibit the content of hydroxyproline in lung fibrosis model cells | 31.28 | 57.35 |
| Pro-(D-Pyr)-(D-Cys)-Bip-Arg-Gly-Glu-Gly-Gly-Gly-Gly-Arg-Gly-Asp-Gly-Gly-Gly-Gly-Ile-Val-Arg-Arg-Ala-Asp-Arg-Ala-Ala-Val-Pro [Polypeptide VI] | 46.55 ± 16.44 | 79.04 ± 14.36 | 53.80 ± 12.33 | 59.67 ± 9.56 | 63.23 ± 12.96 | 83.25 ± 17.67 | 78.80 ± 13.47 | 42.16 ± 13.36 | 55.50 ± 18.21 | 52.54 ± 13.88 | can inhibit the content of hydroxyproline in lung fibrosis model cells | 29.55 | 54.17 |
